In patent publication US8258149B2, “Isoquinoline derivatives” (Hoffmann-La Roche Inc., priority 2009, dated 2012):

Tested on: L6 myotubes
Test: Glucose uptake (2-deoxy-D-[3H]glucose) in L6 myotubes, effectiveness in muscular glucose utilization
Assay type: cell-based
Conditions: Rattus norvegicus, L6 myotubes treated with compound 2 hours
Procedure: L6 myoblasts were cultured in DMEM supplemented with 10% FBS. Confluent cells were differentiated to myotubes by culturing with DMEM supplemented with 2% FBS for 6 days. L6 myotubes were treated with compounds for 2 hours. Glucose uptake was performed in 16 h serum-starved cells. Cells were washed with PBS and incubated in Krebs-Ringer phosphate-HEPES buffer containing 0.1% BSA with or without 100 nmol/l insulin. Then, cells were incubated with 0.05 mmol/l 2-deoxy-D-glucose and 0.5 μCi 2-deoxy-D-[1,2-^3H]glucose for 10 min. The assay was terminated by washing the cells three times with ice-cold PBS. Cells were solubilised with 0.1% triton X-100 and radioactivity was determined by liquid scintillation counting. Total cellular protein concentration was measured by the Bradford method. Glucose uptake was performed in duplicate. The compounds were tested at concentrations of 1 uM and 3 uM. In this test, the compounds of formula (I) induce a glucose uptake activity between 1 and 2 fold the glucose uptake activity of the vehicle. Some particularly preferred compounds of formula (I) induce a glucose uptake activity between 1.2 and 2 fold the glucose uptake of the vehicle. Other particularly preferred compounds of formula (I) induce a glucose uptake activity between 1.4 and 2 fold the glucose uptake activity of the vehicle.

SMILES	fold induction at 1 µM	fold induction at 3 µM
COc1ccc2c(c1OC)C(c1ccccc1)N1CCc3cc4c(cc3C1=C2)OCO4 (centres unmarked) [Example 1, 9,10-Dimethoxy-8-phenyl-5,8-dihydro-6H-[1,3]dioxolo[4,5-g]isoquino[3,2-a]isoquinoline]	1.32	1.3
COc1ccc2c(c1OC)C1(CCCC1)N1CCc3cc4c(cc3C1C2)OCO4 (centres unmarked) [Example 2, 9′,10′-Dimethoxy-5′,6′,13′,13a′-tetrahydrospiro[cyclopentane-1,8′-[1,3]dioxolo[4,5-g]isoquino[3,2-a]isoquinoline]]	1.11	1.07
C=CC1c2c(ccc(OC)c2OC)C=C2c3cc4c(cc3CCN21)OCO4 (centres unmarked) [Example 3, 9,10-Dimethoxy-8-vinyl-5,8-dihydro-6H-[1,3]dioxolo[4,5-g]isoquino[3,2-a]isoquinoline]	1.16	1.11
C=C(C)C1c2c(ccc(OC)c2OC)C=C2c3cc4c(cc3CCN21)OCO4 (centres unmarked) [Example 4, 8-Isopropenyl-9,10-dimethoxy-5,8-dihydro-6H-[1,3]dioxolo[4,5-g]isoquino[3,2-a]isoquinoline]	1.86	1.46
C#CC1c2c(ccc(OC)c2OC)C=C2c3cc4c(cc3CCN21)OCO4 (centres unmarked) [Example 5, 8-Ethynyl-9,10-dimethoxy-5,8-dihydro-6H-[1,3]dioxolo[4,5-g]isoquino[3,2-a]isoquinoline]	–	1.15
C=CCC1c2c(ccc(OC)c2OC)C=C2c3cc4c(cc3CCN21)OCO4 (centres unmarked) [Example 6, 8-Allyl-9,10-dimethoxy-5,8-dihydro-6H-[1,3]dioxolo[4,5-g]isoquino[3,2-a]isoquinoline]	–	1.07
CC#CC1c2c(ccc(OC)c2OC)C=C2c3cc4c(cc3CCN21)OCO4 (centres unmarked) [Example 7, 9,10-Dimethoxy-8-prop-1-ynyl-5,8-dihydro-6H-[1,3]dioxolo[4,5-g]isoquino[3,2-a]isoquinoline]	1.58	1.68
C=C(C)C1c2c(ccc(OC)c2OC)C(C)=C2c3cc4c(cc3CCN21)OCO4 (centres unmarked) [Example 8, 8-Isopropenyl-9,10-dimethoxy-13-methyl-5,8-dihydro-6H-[1,3]dioxolo[4,5-g]isoquino[3,2-a]isoquinoline]	1.2	1.35
CC#CC1c2c(ccc(OC)c2OC)C(C)=C2c3cc4c(cc3CCN21)OCO4 (centres unmarked) [Example 9, 9,10-Dimethoxy-13-methyl-8-prop-1-ynyl-5,8-dihydro-6H-[1,3]dioxolo[4,5-g]isoquino[3,2-a]isoquinoline]	1.63	0.99
C=C(C)C1c2c(ccc(OC)c2OC)C(CC)=C2c3cc4c(cc3CCN21)OCO4 (centres unmarked) [Example 10, 13-Ethyl-8-isopropenyl-9,10-dimethoxy-5,8-dihydro-6H-[1,3]dioxolo[4,5-g]isoquino[3,2-a]isoquinoline]	1.05	1.22
C=CCC1c2c(ccc(OC)c2OC)C(CC)=C2c3cc4c(cc3CCN21)OCO4 (centres unmarked) [Example 11, 8-Allyl-13-ethyl-9,10-dimethoxy-5,8-dihydro-6H-[1,3]dioxolo[4,5-g]isoquino[3,2-a]isoquinoline]	1.15	–
CC#CC1c2c(ccc(OC)c2OC)C(CC)=C2c3cc4c(cc3CCN21)OCO4 (centres unmarked) [Example 12, 13-Ethyl-9,10-dimethoxy-8-prop-1-ynyl-5,8-dihydro-6H-[1,3]dioxolo[4,5-g]isoquino[3,2-a]isoquinoline]	1.59	1.22
C=CCC1=C2c3cc4c(cc3CCN2C(C(=C)C)c2c1ccc(OC)c2OC)OCO4 (centres unmarked) [Example 13, 13-Allyl-8-isopropenyl-9,10-dimethoxy-5,8-dihydro-6H-[1,3]dioxolo[4,5-g]isoquino[3,2-a]isoquinoline]	0.94	1.05
COc1ccc2c(c1OC)C(C)(C)N1CCc3cc4c(cc3C1=C2C)OCO4 [Example 14, 9,10-Dimethoxy-8,8,13-trimethyl-5,8-dihydro-6H-[1,3]dioxolo[4,5-g]isoquino[3,2-a]isoquinoline]	1.21	1.18
CCC1(CC)c2c(ccc(OC)c2OC)C(C)=C2c3cc4c(cc3CCN21)OCO4 [Example 15, 8,8-Diethyl-9,10-dimethoxy-13-methyl-5,8-dihydro-6H-[1,3]dioxolo[4,5-g]isoquino[3,2-a]isoquinoline]	1.22	1.14
CCC1=C2c3cc4c(cc3CCN2C(C)(C)c2c1ccc(OC)c2OC)OCO4 [Example 16, 13-Ethyl-9,10-dimethoxy-8,8-dimethyl-5,8-dihydro-6H-[1,3]dioxolo[4,5-g]isoquino[3,2-a]isoquinoline]	1.25	0.91
C=CCC1(CC=C)c2c(ccc(OC)c2OC)C=C2c3cc4c(cc3CCN21)OCO4 [Example 17, 8,8-Diallyl-9,10-dimethoxy-5,8-dihydro-6H-[1,3]dioxolo[4,5-g]isoquino[3,2-a]isoquinoline]	1.34	1.04
COc1ccc2c(c1OC)C(C)(C)N1CCc3cc4c(cc3C1=C2Cc1ccccc1)OCO4 [Example 18, 13-Benzyl-9,10-dimethoxy-8,8-dimethyl-5,8-dihydro-6H-[1,3]dioxolo[4,5-g]isoquino[3,2-a]isoquinoline]	1.19	1.05
COc1cc(Cl)c2c(c1OC)C(C)(C)N1CCc3cc4c(cc3C1=C2)OCO4 [Example 19, 12-Chloro-9,10-dimethoxy-8,8-dimethyl-5,8-dihydro-6H-[1,3]dioxolo[4,5-g]isoquino[3,2-a]isoquinoline]	1.25	1.24
COc1ccc2c(c1OC)C1(CCCC1)N1CCc3cc4c(cc3C1=C2)OCO4 [Example 20, 9′,10′-Dimethoxy-5′,6′-dihydrospiro[cyclopentane-1,8′-[1,3]dioxolo[4,5-g]isoquino[3,2-a]isoquinoline]]	1.2	1.18
COc1ccc2c(c1OC)C(C)(C)N1CCc3cc4c(cc3C1C2)OCO4 (centres unmarked) [Example 21, 9,10-Dimethoxy-8,8-dimethyl-5,8,13,13a-tetrahydro-6H-[1,3]dioxolo[4,5-g]isoquino[3,2-a]isoquinoline]	1.22	1.14
COc1ccc2c(c1OC)C(C)(C)N1CCc3cc4c(cc3C1C2C)OCO4 (centres unmarked) [Example 22, 9,10-Dimethoxy-8,8,13-trimethyl-5,8,13,13a-tetrahydro-6H-[1,3]dioxolo[4,5-g]isoquino[3,2-a]isoquinoline]	1.38	1.46
CCC1(CC)c2c(ccc(OC)c2OC)C(C)C2c3cc4c(cc3CCN21)OCO4 (centres unmarked) [Example 23, 8,8-Diethyl-9,10-dimethoxy-13-methyl-5,8,13,13a-tetrahydro-6H-[1,3]dioxolo[4,5-g]isoquino[3,2-a]isoquinoline]	1.1	1.14
COc1ccc2c(c1OC)C(C)(C)N1CCc3cc4c(cc3C1C2Cc1ccccn1)OCO4 (centres unmarked) [Example 24, 9,10-Dimethoxy-8,8-dimethyl-13-pyridin-2-ylmethyl-5,8,13,13a-tetrahydro-6H-[1,3]dioxolo[4,5-g]isoquino[3,2-a]isoquinoline]	1.11	1.03
COc1ccc2c(c1OC)C(C)(C)N1CCc3cc4c(cc3C1C2Cc1ccccc1)OCO4 (centres unmarked) [Example 25, 13-Benzyl-9,10-dimethoxy-8,8-dimethyl-5,8,13,13a-tetrahydro-6H-[1,3]dioxolo[4,5-g]isoquino[3,2-a]isoquinoline]	1.13	1.02
COc1ccc2c(c1OC)C1(CC=CC1)N1CCc3cc4c(cc3C1C2)OCO4 (centres unmarked) [Example 26, 9′,10′-Dimethoxy-5′,6′,13′,13a′-tetrahydrospiro[cyclopent-3-ene-1,8′-[1,3]dioxolo[4,5-g]isoquino[3,2-a]isoquinoline]]	1.12	1.11
COc1ccc2c(c1OC)C(C)(C)N1CCc3cc4c(cc3C1=C2)OCO4 [Example 27, 9,10-Dimethoxy-8,8-dimethyl-5,8-dihydro-6H-[1,3]dioxolo[4,5-g]isoquino[3,2-a]isoquinoline]	1.62	1.65
CCC1(CC)c2c(ccc(OC)c2OC)C=C2c3cc4c(cc3CCN21)OCO4 [Example 28, 8,8-Diethyl 9,10-dimethoxy-5,8-dihydro-6H-[1,3]dioxolo[4,5-g]isoquino[3,2-a]isoquinoline]	1.47	1.12
